Results: US8980820B2, “Fatty acid binding proteins as drug targets for endocannabinoids” (The Research Foundation for the State University of New York, priority 2010, dated 2015)
“Also recorded” adds a separate entry of the source.

Legend:
N18TG2 cells = test: [14C]AEA cellular uptake and hydrolysis in N18TG2 cells; assay type: cell-based, mouse
Description: (§1) COS-7 and N18TG2 cells were grown in DMEM supplemented with 10% fetal bovine serum, 100 U/ml penicillin/streptomycin, 2 mM L-glutamine, and 1 mM sodium pyruvate in a humidified incubator containing 95% air and 5% CO2. Transfections were carried out using Lipofectamine 2000 (Invitrogen, Carlsbad, Calif.) according to the manufacturer's instructions. For stable cell selection, forty eight hours after transfection cells were expanded in medium containing 750 μg/ml geneticin (Invitrogen, Carlsbad, Calif.). Four weeks later, stable cells were subjected to flow cytometry at the Flow Cytometry Core Facility in Stony Brook University and cells expressing identical levels of the indicated FAAH-eGFP fusion proteins were collected and expanded.
(§2) Cells were plated at ˜90% confluency in 35 mm dishes, washed twice in DMEM and preincubated with the desired pharmacological compounds or vehicle controls (EtOH or DMSO). The cells were washed twice in DMEM and subsequently incubated for 5 min, 10 or 3 sec, with 750 μl [^14C]AEA (100 nM) that was pre-equilibrated for 75 min in medium containing 0.15% BSA. The equilibration step is necessary to avoid uneven distribution of the radiotracer and to ensure that it is stable in solution pre-bound to BSA. Less than 1% of AEA was hydrolyzed during this pre-equilibration step (data not shown). Following the incubation, 750 μl of ice-cold DMEM+0.15% BSA was added to the plates, the media separated from cells, which were then washed with DMEM+0.15% BSA to remove non-specifically bound AEA. The cells were scraped three times with 400 μl of ice-cold 2 mM EDTA in PBS and chloroform:methanol (1:1) added to the media and cells and the phases separated by centrifugation. The resulting aqueous (containing [^14C]ethanolamine) and organic (containing intact [^14C]AEA) phases were counted by liquid scintillation counting. [^14C]AEA uptake was determined by summing the production of [^14C]ethanolamine in the media and cells with intact cellular [^14C]AEA. Hydrolysis of [^14C]AEA was quantified by production of [^14C]ethanolamine in the media and cells. Blanks consisting of either untransfected COS-7 cells or N18TG2 cells treated with 100 nM of the FAAH inhibitor URB597 were subtracted from all conditions.

FAAH [1] = molecular target: T1, FAAH (Rattus norvegicus, UniProt P97612); test: FAAH enzyme assay, COS-7-FAAH-eGFP homogenates; assay type: biochemical; conditions: 100 μM inhibitor, 100 μM [14C]AEA, p>0.05
T1 construct: N-terminal transmembrane helix (residues 1-29) in red, residues 30-579 in black, and eGFP in green; expressed in transfected cells
T1 sequence (P97612 1-579): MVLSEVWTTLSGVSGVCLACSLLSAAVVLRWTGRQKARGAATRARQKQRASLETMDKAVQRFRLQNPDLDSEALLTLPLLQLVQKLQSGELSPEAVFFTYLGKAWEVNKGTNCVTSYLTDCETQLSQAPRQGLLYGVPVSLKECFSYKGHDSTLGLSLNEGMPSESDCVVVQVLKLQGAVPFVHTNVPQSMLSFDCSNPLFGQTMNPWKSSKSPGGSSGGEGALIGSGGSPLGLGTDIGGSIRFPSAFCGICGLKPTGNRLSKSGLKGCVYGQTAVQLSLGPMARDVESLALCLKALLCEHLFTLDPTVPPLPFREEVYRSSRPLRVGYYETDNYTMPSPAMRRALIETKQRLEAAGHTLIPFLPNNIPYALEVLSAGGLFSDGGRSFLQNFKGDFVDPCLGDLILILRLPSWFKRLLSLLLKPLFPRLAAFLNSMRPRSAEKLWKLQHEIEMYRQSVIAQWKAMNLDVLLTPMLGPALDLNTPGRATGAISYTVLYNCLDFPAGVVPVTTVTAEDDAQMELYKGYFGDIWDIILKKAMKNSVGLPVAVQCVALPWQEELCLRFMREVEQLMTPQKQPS
Description: (§3) FAAH activity assays were performed as previously described. Briefly, cell homogenates were incubated with 100 μM AEA+0.1 μCi [^14C]AEA in Tris-HCl (pH 9) containing 0.1% BSA. For activity analysis, time and total protein were adjusted to maintain substrate conversion at approximately 10%. […] AEA (100 μM) for 1 or 30 min, respectively. Reactions were stopped by the addition of two volumes of 1:1 chloroform:methanol and the phases separated by centrifugation. The methanol phase (containing [^14C]ethanolamine) was sampled and quantified using a Beckman LS 6500 scintillation counter.

COS7-FAAH-eGFP cells = test: [14C]AEA cellular uptake and hydrolysis in COS7-FAAH-eGFP cells; assay type: cell-based, African green monkey
Description: as §1, §2

FAAH [2] = molecular target: T2, FAAH (Mus musculus, UniProt O08914); test: FAAH enzyme assay, N18TG2 homogenates; assay type: biochemical; conditions: 100 μM inhibitor, 100 μM [14C]AEA, p>0.05
T2 construct: endogenous in cells; host or cells: N18TG2 mouse neuroblastoma cells, used as homogenate
T2 sequence (O08914 1-579): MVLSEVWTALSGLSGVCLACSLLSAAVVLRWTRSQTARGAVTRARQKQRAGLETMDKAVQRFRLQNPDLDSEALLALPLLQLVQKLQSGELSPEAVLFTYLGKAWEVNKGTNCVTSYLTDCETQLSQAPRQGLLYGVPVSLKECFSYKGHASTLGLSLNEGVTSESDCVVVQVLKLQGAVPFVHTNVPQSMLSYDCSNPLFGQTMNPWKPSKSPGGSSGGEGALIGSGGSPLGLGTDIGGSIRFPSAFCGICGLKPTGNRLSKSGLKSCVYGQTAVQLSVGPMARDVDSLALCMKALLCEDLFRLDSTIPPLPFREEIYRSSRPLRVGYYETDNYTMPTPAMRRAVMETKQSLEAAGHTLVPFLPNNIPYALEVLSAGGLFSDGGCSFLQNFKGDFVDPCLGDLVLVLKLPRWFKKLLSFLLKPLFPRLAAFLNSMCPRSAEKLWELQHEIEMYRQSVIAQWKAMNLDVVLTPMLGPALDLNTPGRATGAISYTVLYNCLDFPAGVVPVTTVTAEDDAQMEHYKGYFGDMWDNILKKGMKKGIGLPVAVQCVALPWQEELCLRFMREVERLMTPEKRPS
Description: as §3

[3] = stability of AEA during pre-equilibration in medium with BSA; assay type: physicochemical; conditions: 75 min in medium containing 0.15% BSA, data not shown
Description: as §2, with “Blanks consisting of either untransfected COS-7 cells or N18TG2 cells treated with 100 nM of the FAAH inhibitor URB597 were subtracted from all conditions.” left out

[4] = 20-100 μM BMS309403, dose-dependent
[5] = 100 μM, 5 min, vs vehicle, p<0.05
[6] = oleic acid 100 μM, 5 min incubation, [14C]AEA 100 nM

Row | SMILES | intracellular hydrolysis of [14C]AEA following uptake (N18TG2 cells; 3 sec, 20-100 μM) | levels of cell associated [14C]AEA (N18TG2 cells; 3 sec, data not shown) | maximal inhibition of [14C]AEA uptake (N18TG2 cells; [4]) [%] | [14C]AEA hydrolysis (metabolism), effect in words (N18TG2 cells; 20-100 μM, vs vehicle) | [14C]AEA uptake, effect in words (N18TG2 cells; 20-100 μM, vs vehicle) | [14C]AEA hydrolysis (FAAH activity) by homogenates (FAAH [1]) | intracellular hydrolysis of [14C]AEA following uptake (COS7-FAAH-eGFP cells; 3 sec, 20-100 μM) | levels of cell associated [14C]AEA (COS7-FAAH-eGFP cells; 3 sec, data not shown) | maximal inhibition of [14C]AEA uptake (COS7-FAAH-eGFP cells; [4]) [%] | [14C]AEA hydrolysis (metabolism), effect in words (COS7-FAAH-eGFP cells; 20-100 μM, vs vehicle) | [14C]AEA uptake, effect in words (COS7-FAAH-eGFP cells; 20-100 μM, vs vehicle) | [14C]AEA hydrolysis (FAAH activity) by homogenates (FAAH [2]) | [14C]AEA hydrolysis, effect in words (N18TG2 cells; [5]) | [14C]AEA uptake, effect in words (N18TG2 cells; [5]) | reduction of [14C]AEA uptake (N18TG2 cells; [6]) [%] | [14C]AEA hydrolysis, effect in words (COS7-FAAH-eGFP cells; [5]) | [14C]AEA uptake, effect in words (COS7-FAAH-eGFP cells; [5]) | reduction of [14C]AEA uptake (COS7-FAAH-eGFP cells; [6]) [%] | AEA hydrolyzed during pre-equilibration step [3]
1 | CCc1c(-c2ccccc2)c(-c2ccccc2)nn1-c1ccccc1-c1cccc(OCC(=O)O)c1 [BMS309403] | reduced | without affecting | 57 | proportionally and significantly reduced; also recorded: significantly decreased | significantly decreased | did not inhibit; also recorded: not inhibited | reduced | without affecting | 48 | proportionally and significantly reduced; also recorded: significantly decreased | significantly decreased | did not inhibit; also recorded: not inhibited | – | – | – | – | – | – | –
2 | CCCCCCCC/C=C\CCCCCCCC(=O)O [oleic acid] | – | – | – | – | – | did not inhibit; also recorded: not inhibited | – | – | – | – | – | did not inhibit; also recorded: not inhibited | significantly reduced | significantly reduced | 53 | significantly reduced | significantly reduced | 25 | –
3 | CCCCC/C=C\C/C=C\C/C=C\C/C=C\CCCC(=O)NCCO [AEA, arachidonoyl ethanolamide] | – | – | – | – | – | – | – | – | – | – | – | – | – | – | – | – | – | – | Less than 1%
